From patent US10722523B2, “Chemoimmunotherapy for epithelial cancer” (THE REGENTS OF THE UNIVERSITY OF CALIFORNIA, priority 2015, dated 2020) come the findings set out here.

One test has as its system Myc-Cap (MC) tumors. As to the kind of experiment: s.c. Myc-Cap (MC) prostate tumor model. The test is classed as in vivo, mouse. Particulars: 6 mg/kg. The text has this:
All TRAMP mice, their derivatives and s.c. Myc-Cap transplantation were in the FVB genetic background and their basic immune parameters are shown in FIG. 15a-m. For s.c. TRAMP-C2 tumors, C57BL/6 mice were used. In both s.c. tumors, 2-3×10^6 cells/mouse were transplanted. More detailed information is as follows.
Mouse treatment studies were “matched design control trials.” Accordingly, mice were randomly chosen and paired based on sex (male), age (FIG. 6a) and tumor size. For transplanted tumor models, tumor size was defined by the median tumor volume (e.g. 400 mm^3, for late treatments, FIG. 6a,f). For TRAMP transgenic tumor models, treatment decisions were made based on age and mice were randomly chosen including a control littermate. An identification code was assigned to each tumor-bearing mouse both in the transplanted and transgenic models, and the investigators were blinded to treatment allocation at the time of tumor volume measurement, autopsy and analysis.
2×10^6 Myc-Cap^11 or 3×10^6 TRAMP-C2^12 cells (purchased from ATCC) were s.c. injected into the right flank. Tumors were measured every 2-3 days using a caliper. Tumor volumes were calculated as width^2×length/2.
B cells were depleted as previously described^13. Mice were weekly injected (i.p.) with a mixture of monoclonal antibodies, each at 150 μg/mouse: rat anti-mouse CD19 (clone 1D3), rat anti-mouse B220 (clone RA36B2), and mouse anti-mouse CD22 (clone CY34). After 48 hrs, the mice were injected with a secondary antibody (mouse anti-rat kappa chain; GeneTex) at 150 μg/mouse. In addition, mice were injected weekly, but not on the same day, with 250 μg/mouse rat anti-mouse CD20 (Genentech). Rat anti-mouse IgG2a and IgG1 were used as isotype controls. Mice were treated for 3 weeks in total (FIG. 1g; FIG. 7i-p). […]

The subject of another test is Myc-Cap (MC) cells. As to the kind of experiment: Cell death and autophagy of Myc-Cap cells in vitro (Annexin V/PI, LC3A flow cytometry). The format is cell-based, mouse. Particulars: 24 hrs, both at 20 µM. From the text: All results are means±s.e.m.
For adoptive T cell transfer (ATCT) CD8^+ T cells were isolated from single cell suspensions, prepared from spleens and lymph nodes as described above, using CD8α-specific microbeads and MACS-columns (both Miltenyi Biotec GmbH, Bergisch Gladbach, Germany), and 5×10^6 CD8^+ T cells were transferred intraperitoneally (i.p.; FIG. 14a-j). For adoptive B cell transfer (ABCT), B cells (B220^+/CD19^+) were isolated from single cell suspensions prepared from spleens using CD19- and B220-specific microbeads and MACS-columns, and 5×10^6 B cells were transferred i.p. (FIG. 4g-h, FIG. 12n,o). For adoptive splenocytes transfer (ACT), single cell suspensions prepared from spleens were transferred i.p., with one total spleen injected per mouse. Labelling with 5-(and 6-) carboxyfluorescein diacetate succinimidyl ester (CFSE; Molecular Probes, Eugene, Oreg.) was done according to manufacturer's protocol. 5×10^6 CD8^+ T cells or 7×10^6 B cells were transferred (equal to one spleen per mouse; FIG. 5a-i and FIG. 14k-q). For combined adoptive B and T cell transfer (FIG. 5j-1, FIG. 14r-t), T cells were isolated from WT-FVB mice immunized with a Myc-Cap cell lysate as previously described^10. […] The extent of cell death was determined by flow cytometry, showing that more than 90% of cells were positive for Annexin V and PI. The dead cells were injected subcutaneously (s.c.) into WT-FVB mice. Seven days later, T cells were isolated from single cell suspensions of spleen and LN using a Pan T cell isolation Kit (Miltenyi Biotec). B cells were isolated from spleens of naïve FVB-WT or FVB-Tgfbr2^ΔB mice using a Pan B cell isolation kit (Miltenyi Biotec). MC-tumor bearing Rag1^−/− mice received 5×10^6 T cells with or without 5×10^6 B cells (98% pure) from WT or Tgfbr2^ΔB mice. Purity was analyzed on a Beckman Coulter Cyan ADP flow cytometer and was always >98%.
For orientation: A flow cytometer gives signals particle by particle.

Take `N.N.[Cl][Pt][Cl]` [cisplatin]: the “regression of MC tumors raised in Jh−/− mice” value in the test with Myc-Cap (MC) tumors (LD, 3 weekly cycles, tumors 400 mm3) is “ineffective”. In the test with Myc-Cap (MC) tumors (MC tumors), the “immunogenic activity of low dose treatment” value is “devoid of immunogenic activity”. For the same molecule, the “apoptotic cell death of MC cells (Annexin V, propidium iodide)” value in the test with Myc-Cap (MC) cells was “induced apoptotic cell death”.
